Where two headings read alike, the source gives them in different places.
Tests used:
[1] = biological target: FL-SMARCA4 (Homo sapiens, UniProt P51532); experiment: SMARCA4 ATPase activity assay (ADP-Glo, chicken mononucleosome substrate)
[2] = biological target: T1, FL-SMARCA2 (full-length human SMARCA2 isoform 1) (Homo sapiens, UniProt P51531); experiment: SMARCA2 ATPase activity assay (ADP-Glo, chicken mononucleosome substrate); assay type: biochemical; details: ATP 250 uM
T1 construct: FLAG tag (YKDDDDK) (C); made in house; host or cells: Sf21 insect cells (baculovirus, pFastBacI)
T1 sequence (P51531 with tags, fused parts or gaps): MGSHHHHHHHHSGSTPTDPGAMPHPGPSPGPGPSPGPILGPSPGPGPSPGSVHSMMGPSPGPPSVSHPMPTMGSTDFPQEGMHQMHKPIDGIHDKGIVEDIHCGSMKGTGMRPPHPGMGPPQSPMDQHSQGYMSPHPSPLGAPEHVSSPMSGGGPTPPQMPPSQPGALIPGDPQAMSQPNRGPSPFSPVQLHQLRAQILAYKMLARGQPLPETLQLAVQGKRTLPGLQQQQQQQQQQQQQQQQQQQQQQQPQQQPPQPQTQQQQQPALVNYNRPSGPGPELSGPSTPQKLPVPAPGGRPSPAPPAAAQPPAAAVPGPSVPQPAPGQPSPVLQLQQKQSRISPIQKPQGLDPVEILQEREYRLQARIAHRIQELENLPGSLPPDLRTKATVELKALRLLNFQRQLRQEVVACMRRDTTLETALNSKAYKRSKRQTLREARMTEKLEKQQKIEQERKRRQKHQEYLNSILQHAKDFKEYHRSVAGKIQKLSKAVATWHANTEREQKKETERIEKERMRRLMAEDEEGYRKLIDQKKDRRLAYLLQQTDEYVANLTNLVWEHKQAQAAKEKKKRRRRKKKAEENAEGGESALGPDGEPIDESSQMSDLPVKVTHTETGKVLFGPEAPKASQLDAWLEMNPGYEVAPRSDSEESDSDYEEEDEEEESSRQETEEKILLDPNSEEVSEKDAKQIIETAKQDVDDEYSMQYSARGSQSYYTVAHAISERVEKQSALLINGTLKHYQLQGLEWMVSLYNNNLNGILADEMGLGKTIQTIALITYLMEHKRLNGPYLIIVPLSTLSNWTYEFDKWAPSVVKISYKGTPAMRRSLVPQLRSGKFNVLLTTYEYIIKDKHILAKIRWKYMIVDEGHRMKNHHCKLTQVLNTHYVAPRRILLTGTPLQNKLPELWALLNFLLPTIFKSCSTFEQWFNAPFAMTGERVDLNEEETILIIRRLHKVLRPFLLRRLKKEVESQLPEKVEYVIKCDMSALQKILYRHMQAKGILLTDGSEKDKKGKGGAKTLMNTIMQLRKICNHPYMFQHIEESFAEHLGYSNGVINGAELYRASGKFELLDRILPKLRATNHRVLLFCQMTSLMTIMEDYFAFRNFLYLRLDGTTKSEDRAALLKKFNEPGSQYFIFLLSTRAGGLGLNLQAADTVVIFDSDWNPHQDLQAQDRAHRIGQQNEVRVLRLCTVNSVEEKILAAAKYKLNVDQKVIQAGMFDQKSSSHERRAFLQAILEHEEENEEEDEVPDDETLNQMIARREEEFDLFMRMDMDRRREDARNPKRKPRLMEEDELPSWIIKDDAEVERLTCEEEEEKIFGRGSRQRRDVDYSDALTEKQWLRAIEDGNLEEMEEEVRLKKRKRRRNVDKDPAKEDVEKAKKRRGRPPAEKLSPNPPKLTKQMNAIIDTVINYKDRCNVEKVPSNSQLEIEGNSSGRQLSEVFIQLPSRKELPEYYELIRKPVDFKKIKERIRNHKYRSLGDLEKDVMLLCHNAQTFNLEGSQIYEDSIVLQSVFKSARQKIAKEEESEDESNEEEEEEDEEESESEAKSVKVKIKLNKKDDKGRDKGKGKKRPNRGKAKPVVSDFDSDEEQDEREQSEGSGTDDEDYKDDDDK

[3] = FL-SMARCA4 IC50, Table 3a.2, SMARCA4 5 nM, ATP 250 uM, mononucleosome 10 nM
[4] = Table 3a.1, SMARCA2 5 nM, mononucleosome 10 nM
[5] = Table 3d.1, ATPase assay, enzyme 5 nM, chicken mononucleosome 10 nM, 30 min preincubation, read-out: FL-SMARCA2 IC>50
[6] = FL-SMARCA4 IC50, Table 3.2, ATPase assay, enzyme 5 nM, ATP 250 uM, chicken mononucleosome 10 nM, 30 min preincubation
[7] = Table 3.1, ATPase assay, enzyme 5 nM, chicken mononucleosome 10 nM, 30 min preincubation
[8] = FL-SMARCA4 IC>50, Table 3c.2, ATPase assay, enzyme 5 nM, ATP 250 uM, chicken mononucleosome 10 nM, 30 min preincubation
[9] = Table 3c.1, ATPase assay, enzyme 5 nM, chicken mononucleosome 10 nM, 30 min preincubation

Sequence of FL-SMARCA4 (P51532 whole entry, canonical isoform): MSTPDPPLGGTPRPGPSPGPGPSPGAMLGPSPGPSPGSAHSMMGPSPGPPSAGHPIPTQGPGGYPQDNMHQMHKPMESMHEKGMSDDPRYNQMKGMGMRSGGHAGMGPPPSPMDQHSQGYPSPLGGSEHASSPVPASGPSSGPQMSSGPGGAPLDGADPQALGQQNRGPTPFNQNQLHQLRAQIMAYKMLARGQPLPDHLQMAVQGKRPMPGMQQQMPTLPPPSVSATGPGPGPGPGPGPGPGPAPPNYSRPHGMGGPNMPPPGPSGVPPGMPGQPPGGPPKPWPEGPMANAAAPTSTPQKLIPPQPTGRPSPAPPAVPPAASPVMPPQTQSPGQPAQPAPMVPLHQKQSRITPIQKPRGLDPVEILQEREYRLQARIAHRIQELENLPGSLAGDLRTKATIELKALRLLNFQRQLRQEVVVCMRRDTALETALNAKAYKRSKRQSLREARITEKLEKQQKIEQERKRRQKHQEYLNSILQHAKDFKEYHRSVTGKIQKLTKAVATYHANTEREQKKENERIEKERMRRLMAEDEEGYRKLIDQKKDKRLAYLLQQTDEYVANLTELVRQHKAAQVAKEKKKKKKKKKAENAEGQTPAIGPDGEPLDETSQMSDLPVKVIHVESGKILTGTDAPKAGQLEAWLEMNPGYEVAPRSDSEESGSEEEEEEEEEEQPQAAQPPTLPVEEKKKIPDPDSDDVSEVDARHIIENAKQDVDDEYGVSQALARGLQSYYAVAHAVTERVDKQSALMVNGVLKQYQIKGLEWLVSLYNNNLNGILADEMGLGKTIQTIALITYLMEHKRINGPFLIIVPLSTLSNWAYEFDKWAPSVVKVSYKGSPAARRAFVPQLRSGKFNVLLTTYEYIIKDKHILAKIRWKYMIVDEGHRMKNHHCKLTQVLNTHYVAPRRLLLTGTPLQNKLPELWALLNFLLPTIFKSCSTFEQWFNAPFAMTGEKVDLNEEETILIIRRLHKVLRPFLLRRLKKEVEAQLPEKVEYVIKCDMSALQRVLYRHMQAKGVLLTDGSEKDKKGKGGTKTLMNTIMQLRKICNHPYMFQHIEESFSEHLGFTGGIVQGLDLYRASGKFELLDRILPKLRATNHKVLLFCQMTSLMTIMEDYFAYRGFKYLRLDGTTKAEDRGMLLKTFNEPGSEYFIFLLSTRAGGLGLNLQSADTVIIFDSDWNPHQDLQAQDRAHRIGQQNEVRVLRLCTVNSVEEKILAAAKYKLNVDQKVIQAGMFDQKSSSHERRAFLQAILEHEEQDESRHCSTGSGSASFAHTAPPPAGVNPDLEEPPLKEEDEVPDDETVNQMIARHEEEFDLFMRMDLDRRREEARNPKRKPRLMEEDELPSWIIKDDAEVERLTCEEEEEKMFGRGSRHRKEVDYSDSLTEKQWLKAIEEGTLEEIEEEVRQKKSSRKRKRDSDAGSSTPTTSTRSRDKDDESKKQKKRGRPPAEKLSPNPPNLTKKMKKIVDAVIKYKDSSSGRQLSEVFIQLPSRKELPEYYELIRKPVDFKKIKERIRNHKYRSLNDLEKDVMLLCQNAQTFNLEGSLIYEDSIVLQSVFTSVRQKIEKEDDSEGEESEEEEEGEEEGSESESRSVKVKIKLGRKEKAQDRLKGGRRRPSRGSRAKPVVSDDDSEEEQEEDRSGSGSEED

| SMILES | IC50 [1, 3] [µM] | IC50 [2, 4] [µM] | IC50 [1, 6] [µM] | IC50 [2, 7] [µM] | further results |
| --- | --- | --- | --- | --- | --- |
| CN1CCC(C(=O)Nc2cc(F)c(=O)n(CCF)c2)CC1=O (stereo not shown) [Compound 47a] | > 50 | > 50 |  |  |  |
| O=C(Nc1cc(F)c(=O)n(CC(F)F)c1)c1cc(C(O)C(F)(F)F)c(Cl)s1 (stereo not shown) [Compound 47d] |  |  |  |  | IC50 ([1]; FL-SMARCA4 IC50): > 50 µM; IC50 [2, 5]: 25.1 µM |
| CCn1cc(NC(=O)c2ccc(I)n2C)ccc1=O [Compound 48] |  |  | > 50 | 14.1 |  |
| CN1C(=O)CCCC1C(=O)Nc1cc(F)c(=O)n(CCF)c1 (stereo not shown) [Compound 48a] | > 50 | > 50 |  |  |  |
| Cn1cnc2cc(C(=O)Nc3cc(F)c(=O)n(CCF)c3)[nH]c2c1=O [Compound 48d] |  |  |  |  | IC50 ([1]; FL-SMARCA4 IC50): > 50 µM; IC50 [2, 5]: > 50 µM |
| CN1CC(C(=O)Nc2cc(F)c(=O)n(CCF)c2)CCC1=O (stereo not shown) [Compound 49a] | > 50 | > 50 |  |  |  |
| O=C(Nc1cc(F)c(=O)n(CC(F)F)c1)c1cc(C2COC2)c(Cl)s1 [Compound 49c] |  |  |  |  | IC50 [1, 8]: 16.8 µM; IC50 [2, 9]: 16.8 µM |
| O=C(Nc1cc(F)c(=O)n(CC(F)F)c1)c1sc(Cl)c(Cl)c1O [Compound 49d] |  |  |  |  | IC50 ([1]; FL-SMARCA4 IC50): > 50 µM; IC50 [2, 5]: > 50 µM |
| CN1C(=O)CCC1C(=O)Nc1cc(F)c(=O)n(CCF)c1 (stereo not shown) [Compound 50a] | > 50 | > 50 |  |  |  |
| O=C(Nc1cc(F)c(=O)n(CC(F)CO)c1)c1cc(Cl)c(Cl)s1 (stereo not shown) [Compound 50c] |  |  |  |  | IC50 [1, 8]: 22.1 µM; IC50 [2, 9]: 2.61 µM |
| CSc1cc(NC(=O)c2cc(F)c(Cl)s2)cn(CC(F)F)c1=O [Compound 50d] |  |  |  |  | IC50 ([1]; FL-SMARCA4 IC50): > 50 µM; IC50 [2, 5]: 34.6 µM |
| CCn1cc(NC(=O)c2cc(I)cn2C)ccc1=O [Compound 51] |  |  | > 50 | 46.4 |  |
| CN1CC(C(=O)Nc2cc(F)c(=O)n(CCF)c2)CC1=O (stereo not shown) [Compound 51a] | > 50 | > 50 |  |  |  |
| Cn1ccnc1-c1cc(NC(=O)c2sc(C(F)(F)F)cc2Cl)cn(CC(F)F)c1=O [Compound 51c] |  |  |  |  | IC50 [1, 8]: > 50 µM; IC50 [2, 9]: > 50 µM |
| O=C(Nc1cc(F)c(=O)n(CC(F)F)c1)c1nc(Cl)c[nH]1 [Compound 51d] |  |  |  |  | IC50 ([1]; FL-SMARCA4 IC50): > 50 µM; IC50 [2, 5]: > 50 µM |
| CCn1cc(NC(=O)c2ccc(C)n2C(F)F)ccc1=O [Compound 52] |  |  | > 50 | > 50 |  |
| CNCCn1cc(NC(=O)c2cc(F)c(Cl)s2)cc(F)c1=O [Compound 52c] |  |  |  |  | IC50 [1, 8]: > 50 µM; IC50 [2, 9]: > 50 µM |
| O=C(Nc1cc(F)c(=O)n(CC(F)F)c1)c1cc(Cl)c(C#CCO)s1 [Compound 52d] |  |  |  |  | IC50 ([1]; FL-SMARCA4 IC50): > 50 µM; IC50 [2, 5]: 34 µM |
| Cn1c(C(=O)Nc2ccc(=O)n(CC(F)(F)F)c2)cc(Cl)c1Cl [Compound 53] |  |  | 16.7 | 1.48 |  |
| CNCCCn1cc(NC(=O)c2cc(F)c(Cl)s2)cc(F)c1=O [Compound 53c] |  |  |  |  | IC50 [1, 8]: > 50 µM; IC50 [2, 9]: > 50 µM |

| SMILES | IC50 [1, 3] [µM] | IC50 [2, 4] [µM] | IC50 [1, 6] [µM] | IC50 [2, 7] [µM] | further results |
| --- | --- | --- | --- | --- | --- |
| O=C(Nc1cc(F)c(=O)n(CC(F)F)c1)c1cc(Cl)c(C#Cc2cccnc2)s1 [Compound 53d] |  |  |  |  | IC50 ([1]; FL-SMARCA4 IC50): > 50 µM; IC50 [2, 5]: > 50 µM |
| O=C(Nc1ccc(=O)n(Cc2ccccc2)c1)c1ccc(Br)s1 [Compound 54] |  |  | > 50 | > 50 |  |
| CN1CCN(C(=O)Nc2cc(F)c(=O)n(CCF)c2)CC1=O [Compound 54a] | > 50 | > 50 |  |  |  |
| CCn1cc(NC(=O)c2c[nH]c(C)c2)ccc1=O [Compound 55] |  |  | > 50 | > 50 |  |
| CCn1cc(NC(=O)c2ncc(Cl)s2)ccc1=O [Compound 56] |  |  | > 50 | > 50 |  |
| CCn1cc(NC(=O)c2cc(Cl)c(Cl)n2Cc2ccccc2)ccc1=O [Compound 57] |  |  | > 50 | > 50 |  |
| CCn1cc(NC(=O)c2cccc(C(F)(F)F)n2)ccc1=O [Compound 57a] | > 50 | > 50 |  |  |  |
| Cn1c(C(=O)Nc2ccc(=O)n(CCF)c2)cc(Cl)c1Cl [Compound 58] |  |  | 13.6 | 1.3 |  |
| CCn1cc(NC(=O)c2ccc(C(F)(F)F)cn2)ccc1=O [Compound 58a] | > 50 | > 50 |  |  |  |
| CCCn1c(C(=O)Nc2ccc(=O)n(CC)c2)cc(Cl)c1Cl [Compound 59] |  |  | > 50 | > 50 |  |
| CCn1cc(NC(=O)c2cc(C(F)(F)F)ccn2)ccc1=O [Compound 59a] | > 50 | > 50 |  |  |  |
| CCn1cc(NC(=O)c2cc(Cl)c(Cl)n2CCF)ccc1=O [Compound 60] |  |  | 34.7 | 16.7 |  |
| CCn1cc(NC(=O)c2cc(Cl)c(Cl)n2C(C)C)ccc1=O [Compound 61] |  |  | > 50 | > 50 |  |
| CCn1cc(NC(=O)c2cc(Cl)c(Cl)n2C2CC2)ccc1=O [Compound 62] |  |  | > 50 | > 50 |  |
| CCn1cc(NC(=O)c2nc(Cl)cs2)ccc1=O [Compound 63] |  |  | > 50 | > 50 |  |
| CCn1cc(NC(=O)c2nc(Cl)c(Cl)s2)ccc1=O [Compound 64] |  |  | > 50 | > 50 |  |
| CCn1cc(NC(=O)c2cc(C)c(Cl)s2)ccc1=O [Compound 65] |  |  | > 50 | 28.4 |  |
| CCn1cc(NC(=O)c2cc(Cl)c(Cl)n2-c2ccccc2)ccc1=O [Compound 66] |  |  | > 50 | > 50 |  |
| CCCn1cc(NC(=O)c2cc(Cl)c(Cl)n2C)ccc1=O [Compound 68] |  |  | > 50 | 8.55 |  |
| CCn1cc(NC(=O)c2cnc(Cl)s2)ccc1=O [Compound 69] |  |  | 11.7 | 2.52 |  |

| SMILES | IC50 [1, 3] [µM] | IC50 [2, 4] [µM] | IC50 [1, 6] [µM] | IC50 [2, 7] [µM] | further results |
| --- | --- | --- | --- | --- | --- |
| O=C(Nc1cc(F)c(=O)n(CC(F)F)c1)c1cc(C#CC2CN(CC(F)(F)F)C2)c(Cl)s1 [Compound 69c] |  |  |  |  | IC50 [1, 8]: 3.77 µM; IC50 [2, 9]: 1 µM |
| CCn1cc(NC(=O)c2cc(Cl)n(C)c2)ccc1=O [Compound 70] |  |  | > 50 | 16.7 |  |
| CNCCn1cc(NC(=O)c2cc(Cl)c(Cl)n2C)ccc1=O [Compound 71] |  |  | > 50 | > 50 |  |
| CCn1cc(N(C)C(=O)c2cc(Cl)c(Cl)n2C)ccc1=O [Compound 71a] | 39.6 | 2.72 |  |  |  |
| CCn1cc(NC(=O)c2nnc(Cl)s2)ccc1=O [Compound 72] |  |  | > 50 | 33.2 |  |
| CCn1cc(NC(=O)c2cc(Cl)c(C)s2)ccc1=O [Compound 73] |  |  | 35.6 | 11.5 |  |
| CCn1cc(NC(=O)c2cc(OC)c(Cl)s2)ccc1=O [Compound 74] |  |  | 31.5 | 17.2 |  |
| O=C(Nc1ccc(=O)n(CC(F)(F)F)c1)c1cc(Cl)c(Cl)s1 [Compound 75] |  |  | 1.52 | 0.437 |  |
| CC(C)Cn1cc(NC(=O)c2cc(Cl)c(Cl)s2)ccc1=O [Compound 76] |  |  | > 50 | > 50 |  |
| O=C(Nc1cc(F)c(=O)n(CC(F)F)c1)c1nsc(Cl)n1 [Compound 76c] |  |  |  |  | IC50 [1, 8]: > 50 µM; IC50 [2, 9]: 24.1 µM |
| CCn1cc(C(=O)Nc2ccc(Br)s2)ccc1=O [Compound 77] |  |  | > 50 | > 50 |  |
| O=C(Nc1cc(F)c(=O)n(CC(F)F)c1)c1cc(C2CN(c3ccncc3)C2)c(Cl)s1 [Compound 77c] |  |  |  |  | IC50 [1, 8]: 30.5 µM; IC50 [2, 9]: 6.56 µM |
| CCn1cc(NC(=O)c2nnc(C)s2)ccc1=O [Compound 78] |  |  | > 50 | > 50 |  |
| CCn1cc(C(=O)Nc2cc(Cl)c(Cl)s2)ccc1=O [Compound 79] |  |  | > 50 | > 50 |  |
| O=C(Nc1ccc(=O)n(CC2CC2)c1)c1cc(Cl)c(Cl)s1 [Compound 82] |  |  | 28.9 | 14.8 |  |
| O=C(Nc1ccc(=O)n(CCO)c1)c1cc(Cl)c(Cl)s1 [Compound 83] |  |  | > 50 | 20.8 |  |
| CCn1cc(NC(=O)c2cc(Cl)c(Cl)s2)cc(Cl)c1=O [Compound 84] |  |  | 1.12 | 0.197 |  |
| O=C(Nc1cc(F)c(=O)n(CC(F)F)c1)c1cc2cc(-c3ccncc3)ccc2s1 [Compound 84c] |  |  |  |  | IC50 [1, 8]: 28.9 µM; IC50 [2, 9]: 1.85 µM |

Second part, led by results:

| IC50 [1, 3] [µM] | IC50 [2, 4] [µM] | IC50 [1, 6] [µM] | IC50 [2, 7] [µM] | SMILES | further results |
| --- | --- | --- | --- | --- | --- |
| > 50 | > 50 |  |  | O=C(Nc1cc(F)c(=O)n(CCF)c1)N1CCCC1 [Compound 52a] |  |
| > 50 | > 50 |  |  | O=C(Nc1cc(F)c(=O)n(CCF)c1)N1CCn2ccnc2C1 [Compound 53a] |  |
| > 50 | > 50 |  |  | O=C(Nc1cc(F)c(=O)n(CCF)c1)c1ncccn1 [Compound 55a] |  |
| > 50 | > 50 |  |  | O=C(Nc1cc(F)c(=O)n(CCF)c1)c1ccc(Cl)cn1 [Compound 56a] |  |
| 46.7 | 14.3 |  |  | O=C(Nc1cc(F)c(=O)n(CCF)c1)N1CCC(Cl)=C(Cl)C1 [Compound 60a] |  |
| > 50 | > 50 |  |  | CCN(CC)c1nc2sc(C(=O)Nc3cc(F)c(=O)n(CCF)c3)cc2s1 [Compound 61a] |  |
| 48.2 | 44 |  |  | COc1ccc2nc(C(=O)Nc3cc(F)c(=O)n(CCF)c3)sc2c1 [Compound 62a] |  |
| > 50 | > 50 |  |  | O=C(Nc1cc(F)c(=O)n(CCF)c1)c1cc2n(n1)CCNC2=O [Compound 64a] |  |
| 27 | 4.91 |  |  | COc1ccc2cc(C(=O)Nc3cc(F)c(=O)n(CCF)c3)[nH]c2c1 [Compound 65a] |  |
| > 50 | 32.1 |  |  | O=C(Nc1cc(F)c(=O)n(CCF)c1)c1cc2cncnc2[nH]1 [Compound 66a] |  |
| > 50 | > 50 |  |  | O=C(Nc1cc(F)c(=O)n(CCF)c1)c1ccc2c(c1)CNC2=O [Compound 68a] |  |
| 8.48 | 1.53 |  |  | O=C(Nc1cc(F)c(=O)n(CC(F)F)c1)c1cnc(C(F)(F)F)c(F)c1 [Compound 69a] |  |
|  |  | 0.723 | 0.223 | O=C(Nc1ccc(=O)n(CC(F)F)c1)c1cc(Cl)c(Cl)s1 [Compound 81] |  |

Reference: US20220356174A1, “PYRIDIN-2-ONE COMPOUNDS USEFUL AS SMARCA2 ANTAGONISTS” (Epizyme, Inc., priority 2018, published 2022)
